Values of other authors as cited in patent US6326360A, “Bubbling enteric coated preparations” (Grelan Pharmaceuticals Co., Ltd., priority 1998, dated 2001).

Details: oral tablets

CC1(C)[C@@H](O[C@H]2O[C@H](C(=O)O)[C@@H](O)[C@H](O)[C@H]2O[C@@H]2O[C@H](C(=O)O)[C@@H](O)[C@H](O)[C@H]2O)CC[C@]2(C)[C@H]3C(=O)C=C4[C@@H]5C[C@@](C)(C(=O)O)CC[C@]5(C)CC[C@@]4(C)[C@]3(C)CC[C@@H]12 [glycyrrhizin]
decomposition of glycyrrhizin in the stomach (in words): quickly decomposed into glycyrrhetinic acid in the stomach | transfer of unchanged glycyrrhizin into blood (in words): hardly observed
